These are literature values, as cited in patent US20190054051A1, “DOPA Formulations for Treatments of Parkinson's Disease” (The Board of Trustees of the Leland Stanford Junior …, priority 2017, published 2019).

Molecules are shown by their SMILES.

For data set [1] the following is noted: cited from earlier work.
Another data set has as its system animal models of PD. The settings on record: previously reported; cited from earlier work.

Consider `C[C@@](Cc1ccc(O)c(O)c1)(NN)C(=O)O` [Carbidopa, N-amino-α-methyl-3-hydroxy-L-tyrosine monohydrate], for which the solubility in water result in data set [1] is given as “slightly soluble in water”.
As to `NC(N)=Nc1nc(CSCCC(N)=NS(N)(=O)=O)cs1` [famotidine], the “L-DOPA induced dyskinesia (dyskinetic behavior following DOPA treatment)” value with animal models of PD is “decreased the dyskinetic behavior”.
